Patent US10294202B2, “Pyrrolidinones as herbicides” (FMC Corporation, priority 2013, dated 2019)

Legend:
Assay in all cases: Test D pre-/postemergence herbicide test
field violet = type: in vivo, Viola arvensis; settings: for Plant response rating: Field Violet, scale 0 to 100; for Plant response rating, Field Violet: scale 0 to 100 (0 no effect, 100 complete control)
Excerpt: (§1) Seeds of plant species selected from bluegrass (annual bluegrass, Poa annua), blackgrass (Alopecurus myosuroides), canarygrass (littleseed canarygrass, Phalaris minor), chickweed (common chickweed, Stellaria media), galium (catchweed bedstraw, Galium aparine), bromegrass, downy (downy bromegrass, Bromus tectorum), field poppy (Papaver rhoeas), field violet (Viola arvensis), foxtail, green (green foxtail, Setaria viridis), deadnettle (henbit deadnettle, Lamium amplexicaule), ryegrass, Italian (Italian ryegrass, Lolium multiflorum), kochia (Kochia scoparia), lambsquarters (Chenopodium album), oilseed rape (Brassica napus), pigweed (Amaranthus retroflexus), chamomile (scentless chamomile, Matricaria inodora), Russian thistle (Salsola kali), speedwell (bird's-eye speedwell, Veronica persica), barley, spring (spring barley, Hordeum vulgare), wheat, spring (spring wheat, Triticum aestivum), buckwheat, wild (wild buckwheat, Polygonum convolvulus), mustard, wild (wild mustard, Sinapis arvensis), oat, wild (wild oat, Avena fatua), radish, wild (wild radish, Raphanus raphanistrum), […]), barley, winter (winter barley, Hordeum vulgare), and wheat, winter (winter wheat, Triticum aestivum) were planted into a silt loam soil and treated preemergence with test chemicals formulated in a non-phytotoxic solvent mixture which included a surfactant. At the same time, these species were planted in pots containing Redi-Earth® planting medium (Scotts Company, 14111 Scottslawn Road, Marysville, Ohio 43041) comprising spaghnum peat moss, vermiculite, wetting agent and starter nutrients and treated with postemergence applications of the test chemicals formulated in the same manner. Plants ranged in height from 2 to 18 cm (1- to 4-leaf stage). Treated plants and controls were maintained in a controlled growth environment for 7 to 21 days after which time all species were compared to controls and visually evaluated. Plant response ratings, summarized in Table D, are based on a scale of 0 to 100 where 0 is no effect and 100 is complete control. A dash (-) response means no test result.

oilseed rape = type: in vivo, Brassica napus; settings: for Plant response rating: Postemergence, Oilseed Rape, scale 0 to 100; for Plant response rating, Oilseed Rape: Preemergence, scale 0 to 100 (0 no effect, 100 complete control)
Excerpt: as §1

wheat, spring = type: in vivo, Triticum aestivum; settings: for Plant response rating: Postemergence, Wheat, Spring, scale 0 to 100; for Plant response rating, Wheat, Spring: Preemergence, scale 0 to 100 (0 no effect, 100 complete control)
Excerpt: as §1

wheat, winter = type: in vivo, Triticum aestivum; settings: for Plant response rating: Postemergence, Wheat, Winter, scale 0 to 100; for Plant response rating, Wheat, Winter: Preemergence, scale 0 to 100 (0 no effect, 100 complete control)
Excerpt: as §1

Q: O=C1NCC(c2ccc(F)c(F)c2)C1C(=O)Nc1ccccc1C(F)(F)F (racemic) [Compound 6] was tested. Which Plant response rating (field violet; Postemergence, 16 g ai/ha) did it give?
A: 0

Q: And the Plant response rating (field violet; Postemergence, 31 g ai/ha)?
A: 0

Q: And the Plant response rating (field violet; Postemergence, 62 g ai/ha)?
A: 20

Q: What about the Plant response rating (field violet; Postemergence, 125 g ai/ha) of the same compound?
A: 20

Q: What about the Plant response rating (field violet; Postemergence, 250 g ai/ha) of the same compound?
A: 25

Q: What about the “Plant response rating, Field Violet” value (field violet; Preemergence, 62 g ai/ha) of the same compound?
A: 0

Q: And the “Plant response rating, Field Violet” value (field violet; Preemergence, 16 g ai/ha)?
A: 0

Q: And the “Plant response rating, Field Violet” value (field violet; Preemergence, 31 g ai/ha)?
A: 0

Q: What about the Plant response rating (field violet; Preemergence, 125 g ai/ha) of the same compound?
A: 0

Q: What about the Plant response rating (field violet; Preemergence, 250 g ai/ha) of the same compound?
A: 0

Q: And the Plant response rating (oilseed rape; 16 g ai/ha)?
A: 10

Q: And the Plant response rating (oilseed rape; 31 g ai/ha)?
A: 10

Q: And the Plant response rating (oilseed rape; 62 g ai/ha)?
A: 10

Q: What about the Plant response rating (oilseed rape; 125 g ai/ha) of the same compound?
A: 15

Q: What about the Plant response rating (oilseed rape; 250 g ai/ha) of the same compound?
A: 20

Q: And the “Plant response rating, Oilseed Rape” value (oilseed rape; 62 g ai/ha)?
A: 0

Q: And the “Plant response rating, Oilseed Rape” value (oilseed rape; 125 g ai/ha)?
A: 10

Q: What about the “Plant response rating, Oilseed Rape” value (oilseed rape; 16 g ai/ha) of the same compound?
A: 0

Q: And the “Plant response rating, Oilseed Rape” value (oilseed rape; 31 g ai/ha)?
A: 0

Q: And the “Plant response rating, Oilseed Rape” value (oilseed rape; 250 g ai/ha)?
A: 20

Q: And the Plant response rating (wheat, spring; 16 g ai/ha)?
A: 0

Q: What about the Plant response rating (wheat, spring; 31 g ai/ha) of the same compound?
A: 0

Q: What about the Plant response rating (wheat, spring; 62 g ai/ha) of the same compound?
A: 5

Q: What about the Plant response rating (wheat, spring; 125 g ai/ha) of the same compound?
A: 5

Q: What about the Plant response rating (wheat, spring; 250 g ai/ha) of the same compound?
A: 5

Q: And the “Plant response rating, Wheat, Spring” value (wheat, spring; 62 g ai/ha)?
A: 0

Q: What about the “Plant response rating, Wheat, Spring” value (wheat, spring; 125 g ai/ha) of the same compound?
A: 0

Q: What about the “Plant response rating, Wheat, Spring” value (wheat, spring; 16 g ai/ha) of the same compound?
A: 0

Q: What about the “Plant response rating, Wheat, Spring” value (wheat, spring; 31 g ai/ha) of the same compound?
A: 0

Q: And the “Plant response rating, Wheat, Spring” value (wheat, spring; 250 g ai/ha)?
A: 0

Q: And the Plant response rating (wheat, winter; 16 g ai/ha)?
A: 0

Q: And the Plant response rating (wheat, winter; 31 g ai/ha)?
A: 0

Q: What about the Plant response rating (wheat, winter; 62 g ai/ha) of the same compound?
A: 0

Q: What about the Plant response rating (wheat, winter; 125 g ai/ha) of the same compound?
A: 0

Q: And the Plant response rating (wheat, winter; 250 g ai/ha)?
A: 0

Q: What about the “Plant response rating, Wheat, Winter” value (wheat, winter; 62 g ai/ha) of the same compound?
A: 0

Q: And the “Plant response rating, Wheat, Winter” value (wheat, winter; 125 g ai/ha)?
A: 0

Q: What about the “Plant response rating, Wheat, Winter” value (wheat, winter; 16 g ai/ha) of the same compound?
A: 0

Q: What about the “Plant response rating, Wheat, Winter” value (wheat, winter; 31 g ai/ha) of the same compound?
A: 0

Q: What about the “Plant response rating, Wheat, Winter” value (wheat, winter; 250 g ai/ha) of the same compound?
A: 0

Q: Which “Plant response rating, Field Violet” value (field violet; Preemergence, 62 g ai/ha) does the source give for O=C1NCC(c2ccc(F)c(C(F)(F)F)c2)C1C(=O)Nc1cccc(F)c1F (racemic) [Compound 77] here?
A: 20

Q: And the “Plant response rating, Field Violet” value (field violet; Preemergence, 31 g ai/ha)?
A: 15

Q: And the Plant response rating (field violet; Preemergence, 125 g ai/ha)?
A: 20

Q: What about the Plant response rating (field violet; Preemergence, 250 g ai/ha) of the same compound?
A: 55

Q: What about the “Plant response rating, Oilseed Rape” value (oilseed rape; 62 g ai/ha) of the same compound?
A: 5

Q: And the “Plant response rating, Oilseed Rape” value (oilseed rape; 125 g ai/ha)?
A: 5

Q: What about the “Plant response rating, Oilseed Rape” value (oilseed rape; 31 g ai/ha) of the same compound?
A: 5

Q: What about the “Plant response rating, Oilseed Rape” value (oilseed rape; 250 g ai/ha) of the same compound?
A: 5

Q: And the “Plant response rating, Wheat, Spring” value (wheat, spring; 62 g ai/ha)?
A: 10

Q: And the “Plant response rating, Wheat, Spring” value (wheat, spring; 125 g ai/ha)?
A: 20

Q: What about the “Plant response rating, Wheat, Spring” value (wheat, spring; 31 g ai/ha) of the same compound?
A: 10

Q: What about the “Plant response rating, Wheat, Spring” value (wheat, spring; 250 g ai/ha) of the same compound?
A: 25

Q: What about the “Plant response rating, Wheat, Winter” value (wheat, winter; 62 g ai/ha) of the same compound?
A: 0

Q: And the “Plant response rating, Wheat, Winter” value (wheat, winter; 125 g ai/ha)?
A: 25

Q: And the “Plant response rating, Wheat, Winter” value (wheat, winter; 31 g ai/ha)?
A: 0

Q: And the “Plant response rating, Wheat, Winter” value (wheat, winter; 250 g ai/ha)?
A: 55

Q: Which results are given for O=C1NCC(c2cc(F)c(F)cc2F)C1C(=O)Nc1cccc(F)c1F (stereo not drawn) [Compound 50]?
A: Plant response rating (field violet; Postemergence, 16 g ai/ha): 0; Plant response rating (field violet; Postemergence, 31 g ai/ha): 0; Plant response rating (field violet; Postemergence, 62 g ai/ha): 0; Plant response rating (field violet; Postemergence, 125 g ai/ha): 0; Plant response rating, Field Violet (field violet; Preemergence, 62 g ai/ha): 0; Plant response rating, Field Violet (field violet; Preemergence, 16 g ai/ha): 0; Plant response rating, Field Violet (field violet; Preemergence, 31 g ai/ha): 0; Plant response rating (field violet; Preemergence, 125 g ai/ha): 0; Plant response rating (oilseed rape; 16 g ai/ha): 5; Plant response rating (oilseed rape; 31 g ai/ha): 5; Plant response rating (oilseed rape; 62 g ai/ha): 5; Plant response rating (oilseed rape; 125 g ai/ha): 5; Plant response rating, Oilseed Rape (oilseed rape; 62 g ai/ha): 0; Plant response rating, Oilseed Rape (oilseed rape; 125 g ai/ha): 0; Plant response rating, Oilseed Rape (oilseed rape; 16 g ai/ha): 0; Plant response rating, Oilseed Rape (oilseed rape; 31 g ai/ha): 0; Plant response rating (wheat, spring; 16 g ai/ha): 0; Plant response rating (wheat, spring; 31 g ai/ha): 0; Plant response rating (wheat, spring; 62 g ai/ha): 0; Plant response rating (wheat, spring; 125 g ai/ha): 0; Plant response rating, Wheat, Spring (wheat, spring; 62 g ai/ha): 0; Plant response rating, Wheat, Spring (wheat, spring; 125 g ai/ha): 0; Plant response rating, Wheat, Spring (wheat, spring; 16 g ai/ha): 0; Plant response rating, Wheat, Spring (wheat, spring; 31 g ai/ha): 0; Plant response rating (wheat, winter; 16 g ai/ha): 0; Plant response rating (wheat, winter; 31 g ai/ha): 0; Plant response rating (wheat, winter; 62 g ai/ha): 0; Plant response rating (wheat, winter; 125 g ai/ha): 0; Plant response rating, Wheat, Winter (wheat, winter; 62 g ai/ha): 0; Plant response rating, Wheat, Winter (wheat, winter; 125 g ai/ha): 0; Plant response rating, Wheat, Winter (wheat, winter; 16 g ai/ha): 0; Plant response rating, Wheat, Winter (wheat, winter; 31 g ai/ha): 0

Q: Which Plant response rating (field violet; Postemergence, 16 g ai/ha) does the source give for O=C1NCC(c2ccc(Cl)c(F)c2)C1C(=O)Nc1cccc(F)c1F (stereo not drawn) [Compound 52] here?
A: 0

Q: And the Plant response rating (field violet; Postemergence, 31 g ai/ha)?
A: 0

Q: What about the Plant response rating (field violet; Postemergence, 62 g ai/ha) of the same compound?
A: 0

Q: And the Plant response rating (field violet; Postemergence, 125 g ai/ha)?
A: 0

Q: What about the Plant response rating (field violet; Postemergence, 250 g ai/ha) of the same compound?
A: 0

Q: What about the Plant response rating (oilseed rape; 16 g ai/ha) of the same compound?
A: 0

Q: And the Plant response rating (oilseed rape; 31 g ai/ha)?
A: 0

Q: What about the Plant response rating (oilseed rape; 62 g ai/ha) of the same compound?
A: 0

Q: And the Plant response rating (oilseed rape; 125 g ai/ha)?
A: 10

Q: What about the Plant response rating (oilseed rape; 250 g ai/ha) of the same compound?
A: 25

Q: What about the “Plant response rating, Oilseed Rape” value (oilseed rape; 62 g ai/ha) of the same compound?
A: 0

Q: And the “Plant response rating, Oilseed Rape” value (oilseed rape; 125 g ai/ha)?
A: 10

Q: What about the “Plant response rating, Oilseed Rape” value (oilseed rape; 16 g ai/ha) of the same compound?
A: 0

Q: And the “Plant response rating, Oilseed Rape” value (oilseed rape; 31 g ai/ha)?
A: 0

Q: What about the “Plant response rating, Oilseed Rape” value (oilseed rape; 250 g ai/ha) of the same compound?
A: 10

Q: What about the Plant response rating (wheat, spring; 16 g ai/ha) of the same compound?
A: 0

Q: And the Plant response rating (wheat, spring; 31 g ai/ha)?
A: 0

Q: And the Plant response rating (wheat, spring; 62 g ai/ha)?
A: 0

Q: And the Plant response rating (wheat, spring; 125 g ai/ha)?
A: 0

Q: And the Plant response rating (wheat, spring; 250 g ai/ha)?
A: 0

Q: And the “Plant response rating, Wheat, Spring” value (wheat, spring; 62 g ai/ha)?
A: 0

Q: What about the “Plant response rating, Wheat, Spring” value (wheat, spring; 125 g ai/ha) of the same compound?
A: 0

Q: What about the “Plant response rating, Wheat, Spring” value (wheat, spring; 16 g ai/ha) of the same compound?
A: 0

Q: What about the “Plant response rating, Wheat, Spring” value (wheat, spring; 31 g ai/ha) of the same compound?
A: 0

Q: And the “Plant response rating, Wheat, Spring” value (wheat, spring; 250 g ai/ha)?
A: 0

Q: What about the Plant response rating (wheat, winter; 16 g ai/ha) of the same compound?
A: 0

Q: What about the Plant response rating (wheat, winter; 31 g ai/ha) of the same compound?
A: 0

Q: What about the Plant response rating (wheat, winter; 62 g ai/ha) of the same compound?
A: 0

Q: And the Plant response rating (wheat, winter; 125 g ai/ha)?
A: 0

Q: And the Plant response rating (wheat, winter; 250 g ai/ha)?
A: 0

Q: And the “Plant response rating, Wheat, Winter” value (wheat, winter; 62 g ai/ha)?
A: 0

Q: And the “Plant response rating, Wheat, Winter” value (wheat, winter; 125 g ai/ha)?
A: 0

Q: And the “Plant response rating, Wheat, Winter” value (wheat, winter; 16 g ai/ha)?
A: 0

Q: And the “Plant response rating, Wheat, Winter” value (wheat, winter; 31 g ai/ha)?
A: 0

Q: What about the “Plant response rating, Wheat, Winter” value (wheat, winter; 250 g ai/ha) of the same compound?
A: 10
